Patent US20070219245A1, “METHOD OF USE FOR SUBSTITUTED DIPIPERIDINE CCR2 ANTAGONISTS” (priority 2006, published 2007)

Columns and labels:
NON (NONcNZO10/LtJ) mice [1] = assay: Insulin sensitivity model: insulin tolerance test; type: in vivo; conditions: for Blood Glucose: mean ± SEM
Experimental: (§1) In an insulin sensitivity model in mice, four month old male NON (NONcNZO10/LtJ) mice in four treatment groups (treated: 25 mg/kg, 50 mg/kg and 100 mg/kg and non-treated vehicle control) were fed LabDiet® 5K20 for 28 days. The treated groups were dosed (0.1 mL, ip, bid) with a test compound from Day 1 to Day 28. The non-treated group was dosed (0.1 mL, ip, q.d.) with vehicle from Day 1 to Day 28. Body weight and blood glucose were monitored once per week and an insulin tolerance test was performed by i.p. injection of […] insulin, then fed blood glucose levels were measured at 0, 15, 30, 60, 90, and 120 min after insulin administration. The insulin tolerance test blood glucose levels at the time points the sample were taken after insulin administration are shown in Table 5. Blood glucose levels were measured using a Glucometer. MCP-1 and insulin were measured by ELISA. Plasma glucose and FFA were measured using Weko kits. The statistical analysis for p value was performed using the program Prism (Graphpad, Monrovia, Calif.) with the Student t-test (unpaired). All data are presented as the mean ± standard error of the mean (SEM).

NON (NONcNZO10/LtJ) mice [2] = assay: Insulin sensitivity model: Day 28 blood samples and body weight; type: in vivo; conditions: for Blood HbA1c / Body Weight / Plasma FFA / Plasma Glucose / Plasma Insulin / Plasma MCP-1: mean ± SEM
Experimental: as §1, with “5. After sacrifice on Day 28, blood samples were collected to measure HbA1c, plasma levels of glucose, plasma insulin, FFA (free fatty acids) and MCP-1.” for “5.”

Structure (SMILES): O=C(O)[C@H](C1CCN(C(=O)/C=C/c2cc(F)c(F)c(F)c2)CC1)N1CCC(c2c[nH]c3ccccc23)CC1 [(S)-{[4-(1H-indol-3-yl)-piperidin-1-yl]}-{1-[(2E)-3-(3,4,5-trifluoro-phenyl)-acryloyl]-piperidin-4-yl}-acetic acid]
- Blood Glucose (NON (NONcNZO10/LtJ) mice [1]; Day 7, 100 mg/kg ip bid, 60 min after insulin): 82 ± 8 mg/dL
- Blood Glucose (NON (NONcNZO10/LtJ) mice [1]; Day 7, 100 mg/kg ip bid, 90 min after insulin): 83 ± 7 mg/dL
- Blood Glucose (NON (NONcNZO10/LtJ) mice [1]; Day 7, 100 mg/kg ip bid, 120 min after insulin): 98 ± 8 mg/dL
- Blood Glucose (NON (NONcNZO10/LtJ) mice [1]; Day 21, 25 mg/kg ip bid, 0 min after insulin): 465 ± 34 mg/dL
- Blood Glucose (NON (NONcNZO10/LtJ) mice [1]; Day 21, 25 mg/kg ip bid, 15 min after insulin): 367 ± 51 mg/dL
- Blood Glucose (NON (NONcNZO10/LtJ) mice [1]; Day 21, 25 mg/kg ip bid, 30 min after insulin): 247 ± 53 mg/dL
- Blood Glucose (NON (NONcNZO10/LtJ) mice [1]; Day 21, 25 mg/kg ip bid, 60 min after insulin): 209 ± 56 mg/dL
- Blood Glucose (NON (NONcNZO10/LtJ) mice [1]; Day 21, 25 mg/kg ip bid, 90 min after insulin): 198 ± 51 mg/dL
- Blood Glucose (NON (NONcNZO10/LtJ) mice [1]; Day 21, 25 mg/kg ip bid, 120 min after insulin): 237 ± 43 mg/dL
- Blood Glucose (NON (NONcNZO10/LtJ) mice [1]; Day 21, 50 mg/kg ip bid, 0 min after insulin): 434 ± 71 mg/dL
- Blood Glucose (NON (NONcNZO10/LtJ) mice [1]; Day 21, 50 mg/kg ip bid, 15 min after insulin): 303 ± 56 mg/dL
- Blood Glucose (NON (NONcNZO10/LtJ) mice [1]; Day 21, 50 mg/kg ip bid, 30 min after insulin): 186 ± 32 mg/dL
- Blood Glucose (NON (NONcNZO10/LtJ) mice [1]; Day 21, 50 mg/kg ip bid, 60 min after insulin): 162 ± 37 mg/dL
- Blood Glucose (NON (NONcNZO10/LtJ) mice [1]; Day 21, 50 mg/kg ip bid, 90 min after insulin): 168 ± 47 mg/dL
- Blood Glucose (NON (NONcNZO10/LtJ) mice [1]; Day 21, 50 mg/kg ip bid, 120 min after insulin): 214 ± 49 mg/dL
- Blood Glucose (NON (NONcNZO10/LtJ) mice [1]; Day 21, 100 mg/kg ip bid, 0 min after insulin): 332 ± 38 mg/dL
- Blood Glucose (NON (NONcNZO10/LtJ) mice [1]; Day 21, 100 mg/kg ip bid, 15 min after insulin): 247 ± 28 mg/dL
- Blood Glucose (NON (NONcNZO10/LtJ) mice [1]; Day 21, 100 mg/kg ip bid, 30 min after insulin): 152 ± 15 mg/dL
- Blood Glucose (NON (NONcNZO10/LtJ) mice [1]; Day 21, 100 mg/kg ip bid, 60 min after insulin): 144 ± 21 mg/dL
- Blood Glucose (NON (NONcNZO10/LtJ) mice [1]; Day 21, 100 mg/kg ip bid, 90 min after insulin): 158 ± 28 mg/dL
- Blood Glucose (NON (NONcNZO10/LtJ) mice [1]; Day 21, 100 mg/kg ip bid, 120 min after insulin): 228 ± 43 mg/dL
- blood glucose control (NON (NONcNZO10/LtJ) mice [1]; NON mice): improved
- insulin sensitivity (NON (NONcNZO10/LtJ) mice [1]; NON mice): increased
- Blood HbA1c (NON (NONcNZO10/LtJ) mice [2]; Day 28, 25 mg/kg ip bid): 6.6 ± 0.5%
- Body Weight (NON (NONcNZO10/LtJ) mice [2]; Day 28, 25 mg/kg ip bid): 45.2 ± 1.4 g
- Plasma FFA (NON (NONcNZO10/LtJ) mice [2]; Day 28, 25 mg/kg ip bid): 1.2 ± 0.4 mM
- Plasma Glucose (NON (NONcNZO10/LtJ) mice [2]; Day 28, 25 mg/kg ip bid): 413 ± 52 mg/dL
- Plasma Insulin (NON (NONcNZO10/LtJ) mice [2]; Day 28, 25 mg/kg ip bid): 5.8 ± 0.7 ng/mL
- Plasma MCP-1 (NON (NONcNZO10/LtJ) mice [2]; Day 28, 25 mg/kg ip bid): 56.6 ± 3.0 pg/mL
- Blood HbA1c (NON (NONcNZO10/LtJ) mice [2]; Day 28, 50 mg/kg ip bid): 6.7 ± 0.7%
- Body Weight (NON (NONcNZO10/LtJ) mice [2]; Day 28, 50 mg/kg ip bid): 42.6 ± 0.8 g
- Plasma FFA (NON (NONcNZO10/LtJ) mice [2]; Day 28, 50 mg/kg ip bid): 1.0 ± 0.2 mM
- Plasma Glucose (NON (NONcNZO10/LtJ) mice [2]; Day 28, 50 mg/kg ip bid): 358 ± 58 mg/dL
- Plasma Insulin (NON (NONcNZO10/LtJ) mice [2]; Day 28, 50 mg/kg ip bid): 5.4 ± 0.9 ng/mL
- Plasma MCP-1 (NON (NONcNZO10/LtJ) mice [2]; Day 28, 50 mg/kg ip bid): 177.4 ± 63.4 pg/mL
- Blood HbA1c (NON (NONcNZO10/LtJ) mice [2]; Day 28, 100 mg/kg ip bid): 5.0 ± 0.2 %
- Body Weight (NON (NONcNZO10/LtJ) mice [2]; Day 28, 100 mg/kg ip bid): 43.6 ± 0.9 g
- Plasma FFA (NON (NONcNZO10/LtJ) mice [2]; Day 28, 100 mg/kg ip bid): 0.6 ± 0.1 mM
- Plasma Glucose (NON (NONcNZO10/LtJ) mice [2]; Day 28, 100 mg/kg ip bid): 190 ± 15 mg/dL
- Plasma Insulin (NON (NONcNZO10/LtJ) mice [2]; Day 28, 100 mg/kg ip bid): 7.9 ± 1.1 ng/mL
- Plasma MCP-1 (NON (NONcNZO10/LtJ) mice [2]; Day 28, 100 mg/kg ip bid): 555.6 ± 104.5 pg/mL
- HbA1c levels (NON (NONcNZO10/LtJ) mice [2]; NON mice): significantly reduced
- body weight between treated and non-treated groups (NON (NONcNZO10/LtJ) mice [2]; NON mice): without a significant difference
